Where two headings read alike, the source gives them in different places. Where no end group is shown, it is not given here.
Assays:
AT1a receptor = molecular target: T1, AT1a receptor (Rattus norvegicus, UniProt P25095); assay: Ang peptide radioligand binding assay, displacement of [125I]-Ang-II (AT1R/HEK); conditions: competition with [125I]-Ang-II, HEK-293 cells stably expressing AT1a receptor, 90 min on ice, log-logit analysis; average of n studies
T1 construct: expressed in transfected cells
T1 sequence (P25095 1-359): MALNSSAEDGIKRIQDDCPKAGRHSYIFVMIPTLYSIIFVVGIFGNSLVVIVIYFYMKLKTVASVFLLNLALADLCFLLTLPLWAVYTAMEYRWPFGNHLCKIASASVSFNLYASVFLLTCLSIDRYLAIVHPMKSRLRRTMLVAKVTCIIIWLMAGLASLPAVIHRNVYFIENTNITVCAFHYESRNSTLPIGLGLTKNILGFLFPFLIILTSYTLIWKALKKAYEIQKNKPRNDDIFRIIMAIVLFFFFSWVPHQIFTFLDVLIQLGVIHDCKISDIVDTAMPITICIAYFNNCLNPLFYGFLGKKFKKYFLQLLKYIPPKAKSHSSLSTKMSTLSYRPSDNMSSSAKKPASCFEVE
Procedure: (§1) HEK-293 cells stably expressing AT1a receptor were maintained and characterized as previously described. HEK-293 cells expressing AT2 receptors were transfected with pcDNA3.1 plasmid containing human AT2 receptor DNA using Lipofectamine 2000 at 1 µg DNA/well of a six-well plate according to manufacturer's protocol (Invitrogen, Carlsbad, CA). Transfected cells were maintained in Minimal Essential Medium (MEM) containing 10% fetal bovine serum and 1% antibiotic/fungizone/antimycotic with addition of geneticin (400 µg/ml) for stable transfectants. Confluent monolayers cells were deprived of serum (0.1% bovine serum albumin) for 2–24 hours before assay. […] After 90 min of incubation on ice, cells were gently washed 3 times with ice cold 0.9% sodium chloride followed by solubilization of the cell monolayer with 0.1 N NaOH/0.1% SDS. The solubilized sample was placed into a gamma counter for determination of cell-associated radioactivity. Log-logit analysis of the obtained competition curves was performed for determination of IC50 values.

human AT2 receptor = molecular target: T2, human AT2 receptor (Homo sapiens, UniProt P50052); assay: Ang peptide radioligand binding assay, displacement of [125I]-Ang-II (AT2R/HEK); conditions: competition with [125I]-Ang-II, HEK-293 cells stably transfected with human AT2 receptor, 90 min on ice, log-logit analysis; average of n studies
T2 construct: expressed in transfected cells
T2 sequence (P50052 1-363): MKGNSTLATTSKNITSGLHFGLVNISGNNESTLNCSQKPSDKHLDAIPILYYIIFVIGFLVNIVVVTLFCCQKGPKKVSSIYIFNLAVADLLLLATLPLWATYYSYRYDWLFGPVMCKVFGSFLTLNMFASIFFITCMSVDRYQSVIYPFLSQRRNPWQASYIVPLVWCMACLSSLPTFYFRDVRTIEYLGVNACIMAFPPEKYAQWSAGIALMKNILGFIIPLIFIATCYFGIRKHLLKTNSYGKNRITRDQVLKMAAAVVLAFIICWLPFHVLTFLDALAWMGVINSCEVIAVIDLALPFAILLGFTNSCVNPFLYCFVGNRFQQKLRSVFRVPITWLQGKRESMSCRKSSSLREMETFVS
Procedure: as §1

[1] = system: kidney homogenates of uni-nephrectomized FHH rats; assay: Intrarenal Ang peptide content by parallel reaction monitoring (LC/MS/MS), late disease protocol; format: in vivo, rat; conditions: late disease model; for intrarenal level of the exogenously administered peptide (in words): kidneys harvested at sacrifice, chronic iv infusion 100-400 ng/kg/min, whole kidney homogenate, LC-MS/MS (PRM)
Procedure: Stable isotope labeled peptide standards (SIS, ^13C ^15N, New England Peptide, Gardner, MA) were resuspended in water to 1 nM and stored at −80C in Lo-Bind microcentrifuge tubes (Eppendorf) with the exception of Ang-I, which was resuspended in 30% acetonitrile and stored at 0.4 nM final concentration. Ang-(1-7), Ang-II, and Ang-(2-10) contained isotopically labeled valine. Ang-I contained isotopically labeled valine and proline. Peptide concentration was determined by amino acid analysis.
Tissues were stored frozen at −80°C in 15 ml Falcon tubes. Whole kidney tissues were submerged in liquid nitrogen for 5 minutes and kidney tissue was processed in a biopulverizer (MidSci, St. Louis, MO) to a fine powder. Pulverized tissue was transferred to a 5-ml glass dounce with a chilled spatula. Approximately 200 mg of tissue was used for peptide extraction. Four volumes of ice cold methanol (Burdick and Jackson, LC-MS Grade) were added to the tissue followed by a volume of water (Burdick and Jackson, LC-MS Grade) containing O-phenanthroline (Sigma Aldrich) and SIS peptides resulting in a final concentration of 1 mM and 1.8 nM, respectively. Tissue was homogenized in the dounce on ice for 1 minute. An aliquot of tissue homogenate was transferred to a 2-ml lo-bind microcentrifuge tube and stored at −20°C for at least 1 hour. Samples were further centrifuged for 10 minutes at 10,000×g at 4°C. An aliquot equal to approximately 60% of the total sample volume was transferred to a lo-bind tube equivalent to 100 mg of tissue (wet weight). From this aliquot, a volume equal to the wet weight of the starting tissue was transferred to a new lo-bind tube and diluted with ice cold water so that the final concentration of methanol was 40%. […] The filtrate volume was estimated by variable volume pipet and recorded to determine the fraction of starting volume collected. […] Declustering potential was set at 80 V. For parallel reaction monitoring (PRM) quantification, the dominant charge state of each peptide was determined and collision energies were optimized manually for SIS peptides (Table 1). […]

[2] = system: uni-nephrectomized fawn-hooded hypertensive (FHH) rats; conditions: late disease model; for systolic blood pressure at 6 weeks of treatment / systolic blood pressure after 12 weeks of treatment: tail-cuff, mean ± SEM, SEM; for systolic blood pressure at 6 weeks of treatment / degree of glomerulosclerosis (semiquantitative score 0-4): captopril 100 mg/kg/d or losartan 20 mg/kg/d orally; for systolic blood pressure at 6 weeks of treatment: vehicle 179±2; for systolic blood pressure after 12 weeks of treatment: captopril 100 mg/kg/d, losartan 20 mg/kg/d orally, low-dose Ang-(2-10) 100 ng/kg/min iv, vehicle 185±3; for degree of glomerulosclerosis (semiquantitative score 0-4): vehicle 2.29±0.9
Procedure: (§2) Male FHH rats (In-house colony established from animals obtained from Charles River Laboratories, Wilmington, MA) were housed at a certified animal facility at 22°C and a 12∶12 h light/dark cycle. […] All surgeries were performed under isoflurane anesthesia (5% induction, 2% maintenance), at 37°C, and perioperative buprenorphine.
(§3) Following anesthesia, an incision was made in the left flank; the kidney was exposed and excised after ligation of the pedicle. […] Under anesthesia, a mini-pump was placed in a subcutaneous pocket. […] Pumps were replaced once during the treatment period. For the early disease model, five groups of rats were examined. […] For the late disease model, eight groups of rats were examined. […] The dosages of the Ang peptides were selected based on previous studies where Ang-(1-7) was similarly administered using implanted osmotic mini-pumps, [16], [17], [26]. […] Systemic blood pressure was measured by tail-cuff sphygmomanometer (Natume, Japan). Animals were placed on metabolic cages for urine collection at pre-specified time points. Urinary protein excretion was measured by the method of Lowry. Urinary sodium concentration was measured by ion-selective electrodes. At sacrifice, kidneys were harvested for histological analysis and measurement of Ang peptide concentration.
(§4) Upon harvesting, kidneys were cleared of blood by transcardiac perfusion of iced-cold phosphate buffered saline, excised and fixed in 4% paraformaldehyde, embedded in paraffin and processed for microscopic examination. Kidney sections (2-µm) were stained with hematoxylin-eosin (H&E), Jones silver and Periodic Acid Schiff (PAS). Slides were reviewed by an experienced renal pathologist (S.S) in a blinded fashion. Index of glomerulosclerosis was evaluated by a semiquantitative score based on the percentage of the glomerular tuft occupied by sclerotic lesions (0: no lesions, 1: lesions affecting less than 25% of the glomerulus, 2-3-4: lesions affecting 25–50%, 50–75% and 75–100% of the glomerulus, respectively). Tubular injury was rated based on presence of tubular atrophy, microcystic tubular dilation and interstitial fibrosis, from 0 to 3 (0: none; 1: mild; 2: moderate; 3: severe).
(§5) Blood pressure data were analyzed by repeated measures ANOVA. Differences within groups were analyzed using paired t-tests adjusted with Bonferroni modification. Differences between group means at each time point were tested using one-way ANOVA followed by Tukey-Kramer post-hoc test. Urinary protein excretions were log10 transformed and tested using a two-way ANOVA for repeated measures followed by Scheffe post hoc test for differences between the groups. Untransformed 24-hour urinary protein excretions at each time point were then tested using Kruskal-Wallis test. If a significant main effect was detected then differences between groups were tested using the Mann-Whitney U test with the probability adjusted using the Bonferroni modification. Urine sodium was also assessed by two-way ANOVA for repeated measures and pairwise multiple comparisons were made using the Holm-Sidak method. Multiple comparisons of Ang peptide levels were made using ANOVA when data were normally distributed and with log10 transformation when non-normally distributed. Post-hoc pairwise comparisons were made using the Holm-Sidak method. […] For Ang peptide measurements by LC/MS/MS, only values above the LLOQ were utilized for statistical comparisons.

[3] = system: uni-nephrectomized fawn-hooded hypertensive (FHH) rats; assay: Model of FSGS, early disease protocol (blood pressure, proteinuria, histology, weights, urine); format: in vivo, rat
Procedure: as §2, §3, §4, §5

| Compound | IC50 (AT1a receptor) | IC50 (human AT2 receptor) | intrarenal level of the exogenously administered peptide (in words) [1] | systolic blood pressure at 6 weeks of treatment [2] | systolic blood pressure after 12 weeks of treatment [2] | degree of glomerulosclerosis (semiquantitative score 0-4) ([2]; week 30, after 12 weeks) | also measured |
| --- | --- | --- | --- | --- | --- | --- | --- |
| CC[C@H](C)[C@H](NC(=O)[C@H](Cc1ccc(O)cc1)NC(=O)[C@@H](NC(=O)[C@H](CCCNC(=N)N)NC(=O)[C@@H](N)CC(=O)O)C(C)C)C(=O)N[C@@H](Cc1c[nH]cn1)C(=O)N1CCC[C@H]1C(=O)O [Ang-(1-7)] | 3790 nM | 60.9 nM | did not lead to a significant increase |  |  |  |  |
| CC[C@H](C)[C@H](NC(=O)[C@H](Cc1ccc(O)cc1)NC(=O)[C@@H](NC(=O)[C@H](CCCNC(=N)N)NC(=O)[C@@H](N)CC(=O)O)C(C)C)C(=O)N[C@@H](Cc1cnc[nH]1)C(=O)N1CCC[C@H]1C(=O)N[C@@H](Cc1ccccc1)C(=O)O [Ang-II, Angiotensin (Ang) II] |  |  |  |  |  |  | survival (in words) ([2]; Ang-II low-dose 100 ng/kg/min iv, time mark = 6 weeks of treatment): no rats in this group survived beyond that time mark |
| C[C@H](CS)C(=O)N1CCC[C@H]1C(=O)O [Captopril, captopril] |  |  |  | 156±7 mmHg | 145±5 mmHg | 0.88±0.2 | degree of glomerulosclerosis (semiquantitative score 0-4) ([3]; after 8 weeks, Ang-II 100 ng/kg/min iv, captopril 100 mg/kg/d, mean ± SEM, vehicle 0.4±0.1, SEM): 0.1±0.1; tubular injury score (0-3) ([3]; after 8 weeks, Ang-II 100 ng/kg/min iv, captopril 100 mg/kg/d, mean ± SEM, vehicle 0.8±0.2): non-significant reduction; urinary protein excretion (proteinuria), median (range), after 4 weeks ([3]; captopril 100 mg/kg/d, Lowry method, n=5, vehicle 89 (31–188), p=0.014 vs vehicle): 14 (13–17) mg/day; urinary protein excretion (proteinuria), median (range), after 8 weeks ([3]; captopril 100 mg/kg/d, Lowry method, n=5, vehicle 243 (91–402), p=0.014 vs vehicle): 30 (25–33) mg/day; systolic blood pressure after 4 weeks of therapy ([3]; tail-cuff, captopril 100 mg/kg/d in drinking water, n=5, mean ± SEM, vehicle 161±4, SEM): 117±5 mmHg; systolic blood pressure after 8 weeks of therapy ([3]; tail-cuff, captopril 100 mg/kg/d in drinking water, n=5, mean ± SEM, vehicle 162±4, SEM): 134±3 mmHg; progression of the degree of proteinuria between weeks 18 and 24 ([2]; captopril 100 mg/kg/d orally, vehicle +342±289, p=0.012): -225 ± 453 mg/day; tubular injury score (0-3) ([2]; week 30, after 12 weeks, captopril 100 mg/kg/d orally, printed as captopril vs. vehicle, p<0.05): 2.6±0.4; kidney Ang-II levels compared with vehicle (in words) ([1]; after 12 weeks, captopril 100 mg/kg/d, Mann-Whitney U test p=0.002, n=5/group): lower |
| CCCCc1nc(Cl)c(CO)n1Cc1ccc(-c2ccccc2-c2nn[nH]n2)cc1 [Losartan, losartan] |  |  |  | 155±5 mmHg | 146±5 mmHg | 1.28±0.7 |  |
| RVYIHPFHL [Ang-(2-10)] | 47.8 nM | 6.6 nM | did not lead to a significant increase |  |  |  | demise of treated animals ([2]; 400 ng/kg/min iv): 7 out of the 9; number of rats that survived until the end of the study ([2]; high-dose 400 ng/kg/min iv, 12 weeks, n=9 treated): 2 |

— paper PMC4206519, “Lack of Renoprotective Effect of Chronic Intravenous Angiotensin-(1-7) or Angiotensin-(2-10) in a Rat Model of Focal Segmental Glomerulosclerosis” (PLoS ONE, 2014)
